Like-named read-outs stand apart in the source and are kept apart here.
Tests used:
[1] = biological target: T1, human DHFR (Homo sapiens, UniProt P00374); format: biochemical
T1 sequence (P00374 1-187): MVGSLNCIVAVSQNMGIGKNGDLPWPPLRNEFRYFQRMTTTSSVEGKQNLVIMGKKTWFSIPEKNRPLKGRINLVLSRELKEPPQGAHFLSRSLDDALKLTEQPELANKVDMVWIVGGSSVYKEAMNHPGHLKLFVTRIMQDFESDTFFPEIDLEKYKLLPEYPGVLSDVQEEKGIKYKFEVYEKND

[2] = biological target: T2, E. coli DHFR (Escherichia coli, UniProt P0ABQ4); format: biochemical; conditions: for inhibition at 1 mM inhibitor concentration (in words): E. coli DHFR
[3] = Solubility in water
[4] = biological target: T2, E. coli DHFR; conditions: product inhibition; cited from earlier work
[5] = biological target: T1, human DHFR; conditions: product inhibition; cited from earlier work
[6] = previous study; cited from earlier work
[7] = system: cancer cells; conditions: previous study; cited from earlier work
[8] = biological target: T1, human DHFR; assay: Progress curve analysis, slow tight binding, human DHFR; format: biochemical; conditions: time course of NADPH depletion
[9] = biological target: T2, E. coli DHFR; assay: Progress curve analysis, slow tight binding; format: biochemical
[10] = biological target: T2, E. coli DHFR; assay: Inhibition kinetics: substrate titration at fixed inhibitor concentrations; format: biochemical
[11] = IC-50, human DHFR 12.4 nM, 60 μM NADPH, 50 μM H2F, 100 mM HEPES pH 7.3

T2 sequence (P0ABQ4 whole entry): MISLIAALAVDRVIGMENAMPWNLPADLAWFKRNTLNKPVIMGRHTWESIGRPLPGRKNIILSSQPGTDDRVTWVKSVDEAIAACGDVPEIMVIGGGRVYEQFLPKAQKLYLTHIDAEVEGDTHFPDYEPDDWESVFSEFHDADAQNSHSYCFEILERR

Structure (SMILES) | IC50 [2] | Ki [2] | solubility in water [3] | Ki [1] | IC50 [1, 11] | inhibition at 1 mM inhibitor concentration (in words) [2] | other results
C1=Cc2ccccc2Nc2ccccc21 [ISB, 2,2'-Iminostilbene] | 587.8 ± 1.2 µM | 35.2 ± 5.36 µM | sparsely soluble in water |  |  |  | IC50 ([1]; IC-50, human DHFR, table footnote to ND): > 2000 µM
NC(=O)c1ccc[n+]([C@@H]2O[C@H](COP(=O)([O-])OP(=O)(O)OC[C@H]3O[C@@H](n4cnc5c(N)ncnc54)[C@H](OP(=O)(O)O)[C@@H]3O)[C@@H](O)[C@H]2O)c1 [NADP^+] |  |  |  |  |  |  | IC50 [4]: ~5000 µM; IC50 [5]: ~620 µM
Nc1ccc(NC(=O)c2ccc(C(=O)Nc3ccc(N)cc3)cc2)cc1 [NNBABD, N,N'-bis(4-aminophenyl)benzene-1,4-dicarboxamide] | 176.5 ± 1.1 µM | 10.9 ± 2.16 µM | sparsely soluble in water | 5.16 ± 1.41 µM | 254.5 ± 1.79 µM | almost complete inhibition | bactericidal activity [6]: didn't show; activity against cancer cells [7]: didn't show
O=C(Nc1ccc(Oc2ccc(NC(=O)Nc3ccc([N+](=O)[O-])cc3)cc2)cc1)Nc1ccc([N+](=O)[O-])cc1 [NNCPPU, 1-(4-nitrophenyl)-3-[4-[4-[(4-nitrophenyl)carbamoylamino]phenoxy]phenyl]urea] | 36.6 ± 1.1 µM | 2.06 ± 0.378 µM | sparsely soluble in water | 1.97 ± 0.329 µM | 68.9 ± 1.36 µM | almost complete inhibition | bactericidal activity [6]: didn't show; activity against cancer cells [7]: didn't show
Nc1ccc(-c2nc3nc(N)nc(N)c3nc2-c2ccc(N)cc2)cc1 [NSC61642, 6,7-bis (4-aminophenyl) pteridine-2,4-diamine, reference compound] |  |  |  |  |  | unambiguous inhibition | 
Nc1nc2[nH]cc(CCc3ccc(C(=O)N[C@@H](CCC(=O)O)C(=O)O)cc3)c2c(=O)[nH]1 [NSC698037, pemetrexed, reference compound] |  |  |  |  |  | unambiguous inhibition | 
C#CCC(Cc1cnc2nc(N)nc(N)c2n1)c1ccc(C(=O)N[C@@H](CCC(=O)O)C(=O)O)cc1 (stereo partly drawn) [NSC754230, pralatrexate, reference compound] |  |  |  |  |  | unambiguous inhibition | 
Nc1nc(N)c2c(ccc3[nH]ccc32)n1 [PQD, 7H-Pyrrolo(3,2-f)quinazoline-1,3-diamine, reference compound] | 0.106 ± 0.0012 µM | 0.0042 ± 0.0005 µM |  | 0.0934 ± 0.009 µM | 3.087 ± 0.0165 µM | unambiguous inhibition | mode of inhibitor binding (time dependence, in words) [8]: didn't show any slow-onset of inhibition; Kd [9]: 0.00448 ± 0.00063 µM; kon [9]: 350000 M⁻¹ s⁻¹; mode of inhibitor binding (time dependence, in words) ([9]; E. coli DHFR progress curves): classical tight-binding reversible inhibition; koff ([9]; time-dependent inactivation, 50 μM H2F, 60 μM NADPH): 0.094 ± 0.010 min^1; Ki [10]: 0.00318 ± 0.00051 µM; αKi ([10]; uncompetitive inhibition, NADPH titrated): 72.17 ± 4.23 nM; IC50 ([1]; IC-50, human DHFR): 3.09 ± 0.17 µM; fold reduction in potency (IC-50) for human DHFR vs E. coli DHFR ([1]; selectivity human/E. coli): 30 fold

From paper PMC4445455 (The FEBS journal, 2015)
